Experimental data: BigSolDB 2.1

COc1ccc(C(=O)O)c(OC)c1
solubility (mole fraction)
Conditions | 288.15 K | 293.15 K | 298.15 K | 303.15 K | 308.15 K | 313.15 K | 318.15 K | 323.15 K
in ethanol | 0.0116 | 0.0149 | 0.0191 | 0.0244 | 0.0312 | 0.0398 | 0.0507 | 0.0644
in ethyl acetate | 0.0165 | 0.0205 | 0.0253 | 0.0312 | 0.0382 | 0.0467 | 0.0567 | 0.0687
in isobutanol | 0.0059 | 0.0079 | 0.0105 | 0.0139 | 0.0183 | 0.0239 | 0.0311 | 0.0401
in isopropanol | 0.0059 | 0.0081 | 0.0109 | 0.0147 | 0.0195 | 0.0259 | 0.034 | 0.0445
in n-butanol | 0.0086 | 0.0112 | 0.0146 | 0.0188 | 0.0242 | 0.0309 | 0.0393 | 0.0498
in n-propanol | 0.0087 | 0.0114 | 0.015 | 0.0195 | 0.0252 | 0.0325 | 0.0417 | 0.0532
